Results as given in US11332455B2, “α,β-unsaturated amide compound” (KYOWA KIRIN CO., LTD., priority 2015, dated 2022).

Key:
Assay in all cases: Cell growth inhibitory effect, cell counting kit 8, 6 days
Format in all cases: cell-based
[1] = tested on: HuH28, a human liver cancer cell line; details: 144 h, HuH28 cells, 6 days incubation
Excerpt: (§1) Cell growth inhibitory effect on human mesothelioma, human liver cancer, human ovarian cancer, and […]
(§2) NCI-H226 cells, a human mesothelioma cell line (ATCC, CRL-5826), NCI-H322 cells, a human lung cancer cell line (the European Collection of Authenticated Cell Cultures, 95111734), OVTOKO cells, a human ovarian cancer cell line (JCRB cell bank, JCRB1048) and HuH28, a human liver cancer cell line (JCRB cell bank, JCRB0426) were each subcultured by keeping the cell density under 80% in a RPMI1640 culture medium with 10% fetal bovine serum (FBS). NCI-H226 cells, NCI-H322 cells and SSP-25 cells were each suspended in the RPM11640 culture medium mentioned above, and plated to a 96-well flat-bottom plate at 500 cells/well in each well, and incubated at 37° C. in an incubator with 5% CO2 for one day. After the incubation, the evaluation of cell growth inhibitory activity was started. OVTOKO cells were suspended in the RPMI1640 culture medium mentioned above, and plated to a 96-well flat-bottom plate at 250 cells/well in each well, and incubated it at 37° C. in an incubator with 5% CO2 for one day. After the incubation, the evaluation of the cell growth inhibitory activity was started. The next day, a test compound was serially diluted to 5 times of its final concentration in the RPM11640 culture medium mentioned above, and the diluted solution was added to each well. In this case, the final concentration of DMSO in each well was adjusted to 0.1%. After the test compound was added, cells were incubated at 37° C. in an incubator with 5% CO2 for 6 days. At the addition of the test compound and 6 days after the addition, the cell counting measurement was performed using a cell counting kit 8 (made by DOJINDO) according to a protocol equivalent to DOJINDO's recommendation. A reagent contained in the kit was added to each plate and color reaction was performed for 2 or 3 hours at 37° C. in an incubator with 5% CO2. After the reaction, an absorbance at wavelength of 450 nm was measured using a microplate reader. A growth inhibition rate was calculated according to the following formula, from which the concentration of a test compound at which cell growth was inhibited by 50% (GI50 value) was determined.

[2] = tested on: NCI-H322 cells, a human lung cancer cell line; details: 144 h, 6 days incubation
Excerpt: as §1, §2

[3] = tested on: NCI-H226 cells, a human mesothelioma cell line; details: 144 h, 6 days incubation, group less than 100 nmol/L
Excerpt: as §1, §2

SMILES | GI50 [1] [nM] | GI50 [2] [nM] | GI50 [3] [nM]
C=CC(=O)NC1CCOc2c1ccc(Oc1ccc(C(F)(F)F)cc1)c2F (racemic) [Compound 31, N-[8-Fluoro-7-{4-(trifluoromethyl)phenoxy}chroman-4-yl]acrylamide] | < 3000 | < 1000 | < 100
C=CC(=O)NC1CCOc2c1ccc(Oc1ccc(C(F)(F)F)cc1)c2OC (racemic) [Compound 33, N-[8-Methoxy-7-{4-(trifluoromethyl)phenoxy}chroman-4-yl]acrylamide] | < 3000 | < 1000 | < 100
C=CC(=O)NC1COc2c(Oc3ccc(C(F)(F)F)cc3)cccc2C1=O (racemic) [Compound 40, N-[4-Oxo-8-{4-(tolyloromethyl)phenoxy}chroman-3-yl]acrylamide] | < 3000 | < 1000 | < 100
C=CC(=O)N[C@@H]1c2ccc(Oc3ccc(C(F)(F)F)cc3)cc2OC[C@H]1F (relative stereo) [Compound 22, trans-N-[3-Fluoro-7-{4-(trifluoromethyl)phenoxy}chroman-4-yl]acrylamide] | < 3000 | < 1000 | < 100
C=CC(=O)N[C@H]1CC[C@@H](Oc2cccc(Cl)c2)c2ncccc21 (relative stereo) [Compound 68, cis-N-{8-(3-Chlorophenoxy)-5,6,7,8-tetrahydroquinolin-5-yl}acrylamide] | < 3000 | < 1000 | < 100
C=CC(=O)N[C@H]1CC[C@@H](Oc2ccc(C(F)(F)F)cc2)c2nc(OC)ccc21 (relative stereo) [Compound 179, cis-N-[2-Methoxy-8-{4-(trifluoromethyl)phenoxy}-5,6,7,8-tetrahydroquinolin-5-yl]acrylamide] | < 3000 | < 1000 | < 100
C=CC(=O)N[C@H]1CC[C@@H](Oc2ccc(C(F)(F)F)cc2)c2nc(C3CC3)ccc21 (relative stereo) [Compound 185, cis-N-[2-Cyclopropyl-8-{4-(trifluoromethyl)phenoxy}-5,6,7,8-tetrahydroquinolin-5-yl]acrylamide] | < 3000 | < 1000 | < 100
C=CC(=O)N[C@H]1CC[C@@H](Oc2ccc(C(F)(F)F)c(F)c2)c2nc(Cl)ccc21 (relative stereo) [Compound 187, cis-N-[2-Chloro-8-{3-fluoro-4-(trifluoromethyl)phenoxy}-5,6,7,8-tetrahydroquinolin-5-yl]acrylamide] | < 3000 | < 1000 | < 100
C=CC(=O)N[C@H]1CC[C@@H](Oc2ccc(C(F)(F)F)cn2)c2nc(Cl)ccc21 (relative stereo) [Compound 189, cis-N-(2-Chloro-8-[{5-(trifluoromethyl)pyridin-2-yl}oxy]-5,6,7,8-tetrahydroquinolin-5-yl)acrylamide] | < 3000 | < 1000 | < 100
C=CC(=O)N[C@@H]1CC[C@H](Oc2ccc(C(F)(F)F)cc2)c2ncc(Cl)cc21 (relative stereo) [Compound 190, N-((5R*,8S*)-3-Chloro-8-(4-(trifluoromethyl)phenoxy)-5,6,7,8-tetrahydroquinolin-5-yl)acrylamide] | < 3000 | < 1000 | < 100
C=CC(=O)NC1CCOc2cc(Oc3ccc(C(F)(F)F)cc3)ccc21 (stereo not drawn) [Compound 5, N-[7-{4-(trifluoromethyl)phenoxy}chroman-4-yl]acrylamide] | < 3000 | < 1000 | < 100
C=CC(=O)NC1CCOc2c1ccc(Oc1ccc(C(F)(F)F)cc1)c2C (stereo not drawn) [Compound 28, N-[8-Methyl-7-{4-(trifluoromethyl)phenoxy}chroman-4-yl]acrylamide] | < 3000 | < 1000 | < 100
C=CC(=O)Nc1cncc(Oc2cccc(C(F)(F)F)c2)c1 [Compound 95, N-[5-{3-(Trifluoromethyl)phenoxy}pyridin-3-yl]acrylamide] | < 3000 | < 1000 | < 100
C=CC(=O)Nc1cncc(Oc2ccc(C(F)(F)F)cc2)c1 [Compound 96, N-[5-{4-(Trifluoromethyl)phenoxy}pyridin-3-yl]acrylamide] | < 3000 | < 1000 | < 100
C=CC(=O)Nc1cncc(Oc2cncc(C(F)(F)F)c2)c1 [Compound 107, N-(5-[{5-(Trifluoromethyl)pyridin-3-yl}oxy]pyridin-3-yl)acrylamide] | < 3000 | < 1000 | < 100
